Common to all, as to assay: Culture dish method (general screening)
Conditions in all cases: 100 mg/L, 7 days

One assay concerns Barnyardgrass. It is filed as in vivo, barnyard grass.
A further assay relates to Cucumber. It is filed as in vivo.
Another assay has as its system Rape. It is filed as in vivo.
Another assay deals with Wheat. It is filed as in vivo.
The subject of a further assay is Chinese sorghum. It is filed as in vivo.
A further assay concerns Radish. It is filed as in vivo.

Each structure is given as a SMILES string.

Text for Barnyardgrass: (§1) Culture dish method (general screening): The test targets were radish, cucumber, rape, wheat, sorghum and barnyard grass; the seeds of wheat, sorghum and radish were germinated in advance, and the uniform emerge-germinating seeds were used in the test.
Text for Chinese sorghum: as §1
Text for Cucumber: as §1
Text for Radish: as §1
Text for Rape: as §1
Text for Wheat: as §1

As for `CON=C(C(=O)OC)c1ccccc1COc1cccc(-c2ccccn2)c1` [Compound 4], in the assay on Barnyardgrass, the “inhibition rate, Barnyardgrass Root” value is reported as 30% and the “inhibition rate, Barnyardgrass Stem” value was 30%. In the assay on Cucumber, the “inhibition rate, Cucumber Root” value turned out to be 30% and the “inhibition rate, Cucumber Stem” value worked out at 0%. Further, in the assay with Rape, the “inhibition rate, Rape Root” value worked out at 30% and the “inhibition rate, Rape Stem” value was 0%. Also, in the assay with Wheat, the “inhibition rate, Wheat Root” value amounted to 0% and the “inhibition rate, Wheat Stem” value worked out at 0%. Also, in the assay on Chinese sorghum, the “inhibition rate, Chinese sorghum Root” value was 0% and the “inhibition rate, Chinese sorghum Stem” value is 0%. For the same compound, in the assay with Radish, the “inhibition rate, Radish Root” value came to 50% and the “inhibition rate, Radish Stem” value is recorded as 30%.
As to `CON=C(C(=O)OC)c1ccccc1COc1ccc(-c2ccccn2)cc1` [Compound 7], in the assay on Barnyardgrass, the “inhibition rate, Barnyardgrass Root” value came to 50% and the “inhibition rate, Barnyardgrass Stem” value is on record as 20%. Further, in the assay on Cucumber, the “inhibition rate, Cucumber Root” value is 30% and the “inhibition rate, Cucumber Stem” value came out at 0%. For the same compound, in the assay on Rape, the “inhibition rate, Rape Root” value was determined as 60% and the “inhibition rate, Rape Stem” value amounted to 30%. Also, in the assay with Wheat, the “inhibition rate, Wheat Root” value worked out at 20% and the “inhibition rate, Wheat Stem” value worked out at 0%. In the assay on Chinese sorghum, the “inhibition rate, Chinese sorghum Root” value is 0% and the “inhibition rate, Chinese sorghum Stem” value is on record as 0%. Also, in the assay on Radish, the “inhibition rate, Radish Root” value came out at 20% and the “inhibition rate, Radish Stem” value worked out at 0%.
With `CON=C(C(=O)OC)c1ccccc1COc1ccc(-c2ccc(C(F)(F)F)cn2)cc1` [Compound 32], in the assay on Barnyardgrass, the “inhibition rate, Barnyardgrass Root” value is on record as 0% and the “inhibition rate, Barnyardgrass Stem” value worked out at 0%. Also, in the assay on Cucumber, the “inhibition rate, Cucumber Root” value is 0% and the “inhibition rate, Cucumber Stem” value was found to be 0%. Besides, in the assay with Rape, the “inhibition rate, Rape Root” value amounted to 80% and the “inhibition rate, Rape Stem” value stood at 80%. In the assay with Wheat, the “inhibition rate, Wheat Root” value was 0% and the “inhibition rate, Wheat Stem” value is 0%. In the assay on Chinese sorghum, the “inhibition rate, Chinese sorghum Root” value amounted to 0% and the “inhibition rate, Chinese sorghum Stem” value is 0%. For the same compound, in the assay with Radish, the “inhibition rate, Radish Root” value was determined as 80% and the “inhibition rate, Radish Stem” value is 50%.
For `CON=C(C(=O)OC)c1ccccc1COc1cccc(-c2ccnc(Cl)c2)c1` [Compound 67], in the assay with Barnyardgrass, the “inhibition rate, Barnyardgrass Root” value is reported as 50% and the “inhibition rate, Barnyardgrass Stem” value was found to be 0%. In the assay with Cucumber, the “inhibition rate, Cucumber Root” value is 50% and the “inhibition rate, Cucumber Stem” value amounted to 0%. In addition, in the assay on Rape, the “inhibition rate, Rape Root” value is reported as 50% and the “inhibition rate, Rape Stem” value was 30%. Moreover, in the assay on Wheat, the “inhibition rate, Wheat Root” value turned out to be 30% and the “inhibition rate, Wheat Stem” value came out at 0%. Besides, in the assay on Chinese sorghum, the “inhibition rate, Chinese sorghum Root” value stood at 50% and the “inhibition rate, Chinese sorghum Stem” value was 50%. Moreover, in the assay with Radish, the “inhibition rate, Radish Root” value is recorded as 50% and the “inhibition rate, Radish Stem” value is 50%.
Take `CON=C(C(=O)OC)c1ccccc1COc1ccc(-c2ccnc(Cl)c2)cc1` [Compound 75]: in the assay on Barnyardgrass, the “inhibition rate, Barnyardgrass Root” value was 30% and the “inhibition rate, Barnyardgrass Stem” value amounted to 30%. Besides, in the assay on Cucumber, the “inhibition rate, Cucumber Root” value was 30% and the “inhibition rate, Cucumber Stem” value was 0%. Moreover, in the assay with Rape, the “inhibition rate, Rape Root” value is on record as 0% and the “inhibition rate, Rape Stem” value was determined as 0%. In addition, in the assay with Wheat, the “inhibition rate, Wheat Root” value came out at 0% and the “inhibition rate, Wheat Stem” value is recorded as 0%. In the assay with Chinese sorghum, the “inhibition rate, Chinese sorghum Root” value is listed as 0% and the “inhibition rate, Chinese sorghum Stem” value came to 0%. Besides, in the assay with Radish, the “inhibition rate, Radish Root” value worked out at 0% and the “inhibition rate, Radish Stem” value is on record as 0%.

Source of the values: patent publication US9884823B2, “Oxime ether acetate compound, preparation method therefor and weeding application thereof” (ZHEJIANG UNIVERSITY OF TECHNOLOGY, priority 2014, dated 2018).
